Measurements taken from patent publication US20250100994A1, “CDK12/13 COVALENT INHIBITORS OR PHARMACEUTICAL COMPOSITION THEREOF, AND USES THEREOF” (The Regents of the University of Michigan, priority 2023, published 2025).

Tests used:
VCaP cell = VCaP cell proliferation, CellTiter-Glo Luminescent Cell Viability Assay; format: cell-based; details: VCaP cells
Experimental: The VCaP cell proliferation activity was determined by CellTiter-Glo Luminescent Cell Viability Assay (Promega, Madison, WI). The cells were inoculated on a 96-well plate in their respective culture mediums, and incubated in an incubator with 5% CO2 at 37° C. After incubation overnight, serial dilutions of the compound were prepared, and added into the 96-well plate. A CellTiter-Glo reagent (volume equal to the volume of the cell culture medium present in each well) was added (e.g., 100 μL of the reagent was added into 100 μL of the cell culture medium in the 96-well plate). The contents were mixed on an orbital shaker for 2 min to induce the cell lysis. The cells in the 96-well plate were incubated at room temperature for 10 min, to stabilize the luminescent signal. Luminescence was recorded: the luminescent signal for each well was acquired using an Infinite M1000 Pro plate reader (Tecan, Zurich, Switzerland), and the data was analyzed using GraphPad Prism software (GraphPad Software Inc, La Jolla, CA).

CDK12 = CDK12 (Homo sapiens (Human), UniProt Q9NYV4); experiment: LANCE Ultra kinase assay, CDK12; format: biochemical; details: 30 nM enzyme, 60 min pre-incubation, ULight-4E-BP1 150 nM; read-out: CDK12 IC50
Experimental: (§1) The inhibitory activities of the test compound on the kinases were evaluated by LANCE Ultra assay, which was used for detecting ATP-dependent phosphorylation of a ULight-4E-BP1 (Thr37/Thr46) substrate peptide (150 nM). In short, enzymatic reactions were performed in a reaction buffer (25 mM HEPES (pH 7.5), 10 mM MgCl2, 0.01% BSA, 0.01% Tween 20, and 1 mM DTT). The assay was performed in a 384-well plate (6 μL). A final concentration of an ATP substrate was […], and a final concentration of the ULight-4E-BP1 (Thr37/Thr46) substrate peptide was 150 nM. A final concentration of CDK9, CDK12, or CDK13 was 0.3, 30, or 30 nM, respectively. Pre-incubation of the compound and the enzyme was performed at room temperature for 60 min. The reaction was stopped by adding 10 mM EDTA and 0.15 nM Eu-labeled anti-phospho-eIF4E-binding protein 1 (Thr37/46) antibody in LANCE detection buffer after incubation at room temperature for 15, 60, or 90 min. Time-resolved fluorescence (excitation, 320 nm; emission donor, 615 nm; emission acceptor, 665 nm) was monitored using an EnVision spectrophotometer (PerkinElmer). Readings were computed as (acceptor count/donor count)×1000. IC50 values were derived by fitting a sigmoidal dose-response curve to a plot of assay readouts of inhibitor concentrations. All fittings were computed using program Prism 5.03 (GraphPad Software, San Diego, CA).

CDK13 = CDK13 (Homo sapiens (Human), UniProt Q14004); experiment: LANCE Ultra kinase assay, CDK13; format: biochemical; details: 30 nM enzyme, 60 min pre-incubation, ULight-4E-BP1 150 nM; read-out: CDK13 IC50
Experimental: as §1

CDK12, sequence (Q9NYV4 whole entry): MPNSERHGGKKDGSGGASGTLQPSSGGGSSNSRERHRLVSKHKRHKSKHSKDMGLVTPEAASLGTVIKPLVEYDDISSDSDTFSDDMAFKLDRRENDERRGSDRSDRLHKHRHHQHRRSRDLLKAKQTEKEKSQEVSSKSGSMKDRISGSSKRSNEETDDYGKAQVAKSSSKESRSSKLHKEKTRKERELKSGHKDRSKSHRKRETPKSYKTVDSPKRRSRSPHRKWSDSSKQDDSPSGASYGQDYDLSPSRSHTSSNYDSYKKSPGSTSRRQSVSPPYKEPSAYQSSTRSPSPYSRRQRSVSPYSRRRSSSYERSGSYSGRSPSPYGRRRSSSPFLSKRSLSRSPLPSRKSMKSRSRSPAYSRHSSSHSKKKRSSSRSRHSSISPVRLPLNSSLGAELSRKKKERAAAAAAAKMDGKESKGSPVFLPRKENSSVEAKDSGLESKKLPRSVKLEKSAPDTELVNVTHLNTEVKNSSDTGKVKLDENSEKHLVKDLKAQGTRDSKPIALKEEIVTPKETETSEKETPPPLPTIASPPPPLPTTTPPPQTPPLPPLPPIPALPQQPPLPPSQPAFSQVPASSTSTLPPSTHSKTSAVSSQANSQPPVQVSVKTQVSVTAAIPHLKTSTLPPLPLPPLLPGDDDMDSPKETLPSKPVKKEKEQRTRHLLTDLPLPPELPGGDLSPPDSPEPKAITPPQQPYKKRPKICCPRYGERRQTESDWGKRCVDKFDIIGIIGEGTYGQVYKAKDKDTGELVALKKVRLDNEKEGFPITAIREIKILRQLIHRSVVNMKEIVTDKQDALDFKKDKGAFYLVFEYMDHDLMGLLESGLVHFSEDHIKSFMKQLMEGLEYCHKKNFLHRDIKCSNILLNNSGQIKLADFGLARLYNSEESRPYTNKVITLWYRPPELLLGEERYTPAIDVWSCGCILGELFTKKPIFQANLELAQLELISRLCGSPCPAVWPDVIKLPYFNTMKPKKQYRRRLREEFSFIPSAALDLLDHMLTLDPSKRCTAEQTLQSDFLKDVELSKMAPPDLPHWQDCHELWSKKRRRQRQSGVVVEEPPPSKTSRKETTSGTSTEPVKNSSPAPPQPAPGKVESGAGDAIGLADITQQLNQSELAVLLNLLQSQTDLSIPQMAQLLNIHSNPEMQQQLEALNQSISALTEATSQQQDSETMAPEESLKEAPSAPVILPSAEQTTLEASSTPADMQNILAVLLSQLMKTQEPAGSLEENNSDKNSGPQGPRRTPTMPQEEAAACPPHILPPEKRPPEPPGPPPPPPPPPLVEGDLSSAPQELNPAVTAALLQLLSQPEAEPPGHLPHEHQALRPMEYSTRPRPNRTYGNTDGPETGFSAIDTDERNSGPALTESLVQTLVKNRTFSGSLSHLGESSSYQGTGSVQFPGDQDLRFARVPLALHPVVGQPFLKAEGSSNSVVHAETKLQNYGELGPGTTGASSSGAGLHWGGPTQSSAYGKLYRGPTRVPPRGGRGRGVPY
CDK12, sequence (O75909 whole entry partner): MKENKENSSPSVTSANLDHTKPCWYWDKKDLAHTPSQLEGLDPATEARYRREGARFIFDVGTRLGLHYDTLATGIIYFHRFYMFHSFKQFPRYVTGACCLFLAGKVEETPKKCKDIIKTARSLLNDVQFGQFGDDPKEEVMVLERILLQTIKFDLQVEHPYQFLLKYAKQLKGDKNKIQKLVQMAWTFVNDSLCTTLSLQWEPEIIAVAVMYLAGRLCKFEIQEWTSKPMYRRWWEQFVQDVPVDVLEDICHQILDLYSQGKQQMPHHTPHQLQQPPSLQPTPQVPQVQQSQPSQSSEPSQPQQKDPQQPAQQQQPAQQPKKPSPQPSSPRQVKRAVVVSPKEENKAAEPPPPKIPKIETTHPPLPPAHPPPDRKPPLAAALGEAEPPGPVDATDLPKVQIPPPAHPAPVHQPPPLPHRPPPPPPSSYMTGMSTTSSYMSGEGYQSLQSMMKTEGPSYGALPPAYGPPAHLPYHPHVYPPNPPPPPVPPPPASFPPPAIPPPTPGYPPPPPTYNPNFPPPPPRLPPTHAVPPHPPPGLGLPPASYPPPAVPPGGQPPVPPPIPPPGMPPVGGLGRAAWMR
CDK13, sequence (Q14004 whole entry, looked up): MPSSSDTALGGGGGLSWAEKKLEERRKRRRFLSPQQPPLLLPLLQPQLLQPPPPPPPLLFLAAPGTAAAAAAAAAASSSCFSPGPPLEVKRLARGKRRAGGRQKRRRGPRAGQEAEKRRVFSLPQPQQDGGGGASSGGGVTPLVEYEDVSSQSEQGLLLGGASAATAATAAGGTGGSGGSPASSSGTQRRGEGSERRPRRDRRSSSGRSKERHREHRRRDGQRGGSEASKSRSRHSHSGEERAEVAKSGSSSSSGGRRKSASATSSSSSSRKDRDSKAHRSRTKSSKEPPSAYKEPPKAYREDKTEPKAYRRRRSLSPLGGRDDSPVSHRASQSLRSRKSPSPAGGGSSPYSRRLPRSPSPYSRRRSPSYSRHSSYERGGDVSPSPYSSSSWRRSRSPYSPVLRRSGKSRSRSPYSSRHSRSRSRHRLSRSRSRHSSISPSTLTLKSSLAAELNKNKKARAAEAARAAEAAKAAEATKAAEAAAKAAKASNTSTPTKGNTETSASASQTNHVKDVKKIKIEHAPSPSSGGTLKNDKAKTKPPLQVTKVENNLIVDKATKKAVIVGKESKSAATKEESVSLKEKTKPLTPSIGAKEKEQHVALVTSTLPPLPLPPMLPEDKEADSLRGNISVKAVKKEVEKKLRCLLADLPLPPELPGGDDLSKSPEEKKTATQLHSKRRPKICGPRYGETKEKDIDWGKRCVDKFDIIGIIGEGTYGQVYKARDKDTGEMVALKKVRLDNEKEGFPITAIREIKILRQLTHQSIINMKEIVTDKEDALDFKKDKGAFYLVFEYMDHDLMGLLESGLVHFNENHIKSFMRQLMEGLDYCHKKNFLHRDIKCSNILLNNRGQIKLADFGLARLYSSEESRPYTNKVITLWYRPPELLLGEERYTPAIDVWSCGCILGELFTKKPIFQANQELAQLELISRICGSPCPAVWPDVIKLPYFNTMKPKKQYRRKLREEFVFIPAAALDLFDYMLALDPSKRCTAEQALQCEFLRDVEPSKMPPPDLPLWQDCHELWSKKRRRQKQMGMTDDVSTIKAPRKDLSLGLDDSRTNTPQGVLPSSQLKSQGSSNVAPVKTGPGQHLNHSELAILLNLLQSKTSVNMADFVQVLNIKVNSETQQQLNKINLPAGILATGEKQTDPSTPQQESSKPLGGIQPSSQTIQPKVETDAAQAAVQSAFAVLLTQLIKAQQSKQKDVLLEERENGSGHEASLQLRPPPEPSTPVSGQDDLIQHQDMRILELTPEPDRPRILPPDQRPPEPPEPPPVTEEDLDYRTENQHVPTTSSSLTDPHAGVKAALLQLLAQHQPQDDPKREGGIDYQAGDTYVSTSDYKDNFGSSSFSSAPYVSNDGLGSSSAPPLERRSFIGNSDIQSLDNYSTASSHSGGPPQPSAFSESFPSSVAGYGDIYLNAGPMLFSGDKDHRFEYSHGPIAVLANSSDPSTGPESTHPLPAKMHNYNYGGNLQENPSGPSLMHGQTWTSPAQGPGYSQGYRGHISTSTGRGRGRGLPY
CDK13, sequence (O75909 whole entry partner, looked up): as the sequence (O75909 whole entry partner) above

IC50 (VCaP cell; Homo sapiens) [nM]	IC50 (CDK12) [nM]	IC50 (CDK13) [nM]	IC50 (VCaP cell) [nM]	Structure (SMILES)
15 to 50	–	–	–	C=CC(=O)Nc1cc(N(C(=O)C(=O)NCC(F)(F)F)[C@H]2CC[C@H](Nc3ccc(C#N)cn3)CC2)ccc1N1CCN(C)[C@@H](C)C1 [YJZ8104, N1-(3-acrylamido-4-((S)-3,4-dimethylpiperazin-1-yl)phenyl)-N1-((1r,4S)-4-((5-cyanopyridin-2-yl)amino)cyclohexyl)-N2-(2,2,2-trifluoroethyl)oxalamide]
> 500	–	–	–	C=CC(=O)Nc1cc(N(C(C)=O)[C@H]2CC[C@H](Nc3ccc(C#N)cn3)CC2)ccc1N1CCC(N(C)C)CC1 [YJZ6115, N-(5-(N-((1r,4r)-4-((5-cyanopyridin-2-yl)amino)cyclohexyl)acetamido)-2-(4-(dimethylamino)piperidin-1-yl)phenyl)acrylamide]
15 to 50	50 to 500	< 15	–	C=CC(=O)Nc1cc(N(C(=O)NCc2ccccc2)[C@H]2CC[C@H](Nc3ccc(C#N)cn3)CC2)ccc1N1CCOCC1 [YJZ5127, N-(5-(3-benzyl-1-((1r,4r)-4-((5-cyanopyridin-2-yl)amino)cyclohexyl)ureido)-2-morpholinophenyl)acrylamide]
> 500	–	–	–	C=CC(=O)Nc1cc(N([C@H]2CC[C@H](Nc3ccc(C#N)cn3)CC2)S(C)(=O)=O)ccc1N1CCC(N(C)C)CC1 [YJZ6131, N-(5-(N-((1r,4r)-4-((5-cyanopyridin-2-yl)amino)cyclohexyl)methylsulfonamido)-2-(4-(dimethylamino)piperidin-1-yl)phenyl)acrylamide]
< 15	15 to 50	15 to 50	–	C=CC(=O)Nc1cc(N(C(=O)NCc2ccccc2)[C@H]2CC[C@H](Nc3ccc(C#N)cn3)CC2)ccc1N1CCN(C)[C@@H](C)C1 [YJZ6093]
15 to 50	–	–	–	C=CC(=O)Nc1cc(N(C(=O)NCc2ccccc2)[C@H]2CC[C@H](Nc3ncc(C#N)cn3)CC2)ccc1N1CCN(C)[C@@H](C)C1 [YJZ7007]
15 to 50	–	–	–	C=CC(=O)Nc1cc(N(C(=O)C(=O)NCc2ccc(F)cc2)[C@H]2CC[C@H](Nc3ccc(C#N)cn3)CC2)ccc1N1CCN(C)[C@@H](C)C1 [YJZ8093, N1-(3-acrylamido-4-((S)-3,4-dimethylpiperazin-1-yl)phenyl)-N1-((1r,4S)-4-((5-cyanopyridin-2-yl)amino)cyclohexyl)-N2-(4-fluorobenzyl)oxalamide]
15 to 50	–	–	–	C=CC(=O)Nc1cc(N(C(=O)C(=O)NCc2cccc(F)c2)[C@H]2CC[C@H](Nc3ccc(C#N)cn3)CC2)ccc1N1CCN(C)[C@@H](C)C1 [YJZ8087, N1-(3-acrylamido-4-((S)-3,4-dimethylpiperazin-1-yl)phenyl)-N1-((1r,4S)-4-((5-cyanopyridin-2-yl)amino)cyclohexyl)-N2-(3-fluorobenzyl)oxalamide]
50 to 500	50 to 500	50 to 500	–	C=CC(=O)Nc1cc(N(C(=O)NCc2ccccc2)[C@H]2CC[C@H](Nc3ccc(C#N)cn3)CC2)ccc1N1CC(N(C)C)C1 [YJZ6077, N-(5-(3-benzyl-1-((1r,4r)-4-((5-cyanopyridin-2-yl)amino)cyclohexyl)ureido)-2-(3-(dimethylamino)azetidin-1-yl)phenyl)acrylamide]
50 to 500	–	–	–	C=CC(=O)Nc1cc(OC)cc(N(C(=O)NCc2ccccc2)[C@H]2CC[C@H](Nc3ccc(C#N)cn3)CC2)c1 [YJZ8058, N-(3-(3-benzyl-1-((1r,4r)-4-((5-cyanopyridin-2-yl)amino)cyclohexyl)ureido)-5-methoxyphenyl)acrylamide]
15 to 50	–	–	–	C=CC(=O)Nc1cc(N2CCN(C)[C@@H](C)C2)cc(N(C(=O)NCc2ccccc2)[C@H]2CC[C@H](Nc3ccc(C#N)cn3)CC2)c1 [YJZ8062]
50 to 500	15 to 50	< 15	–	C=CC(=O)Nc1cc(N(C(=O)NCc2ccccc2)[C@H]2CC[C@H](Nc3ccc(C#N)cn3)CC2)ccc1-c1ccc(=O)n(C)c1 [YJZ5028]
–	50 to 500	15 to 50	< 15	C=CC(=O)Nc1cc(N(C(=O)NCc2ccccc2)[C@H]2CC[C@H](Nc3ccc(C#N)cn3)CC2)cc(F)c1N1CCN(C)[C@@H](C)C1 [YJZ8070]
15 to 50	–	–	–	C=CC(=O)Nc1cc(N(C(=O)C(=O)NCC2CC2)[C@H]2CC[C@H](Nc3ccc(C#N)cn3)CC2)ccc1N1CCN(C)[C@@H](C)C1 [YJZ8103, N1-(3-acrylamido-4-((S)-3,4-dimethylpiperazin-1-yl)phenyl)-N1-((1r,4S)-4-((5-cyanopyridin-2-yl)amino)cyclohexyl)-N2-(cyclopropylmethyl)oxalamide]
15 to 50	–	–	–	C=CC(=O)Nc1cc(N(C(=O)C(=O)NC2CC2)[C@H]2CC[C@H](Nc3ccc(C#N)cn3)CC2)ccc1N1CCN(C)[C@@H](C)C1 [YJZ8095, N1-(3-acrylamido-4-((S)-3,4-dimethylpiperazin-1-yl)phenyl)-N1-((1r,4S)-4-((5-cyanopyridin-2-yl)amino)cyclohexyl)-N2-cyclopropyloxalamide]
< 15	50 to 500	50 to 500	–	C=CC(=O)Nc1cc(N(C(=O)NCc2ccccc2)[C@H]2CC[C@H](Nc3ccc(C#N)cn3)CC2)ccc1N(C)CCN(C)C [YJZ5125, N-(5-(3-benzyl-1-((1r,4r)-4-((5-cyanopyridin-2-yl)amino)cyclohexyl)ureido)-2-((2-(dimethylamino)ethyl)(methyl)amino)phenyl)acrylamide]
15 to 50	–	–	–	C=CC(=O)Nc1cc(N(C(=O)C(=O)NCc2cccc(F)c2F)[C@H]2CC[C@H](Nc3ccc(C#N)cn3)CC2)ccc1N1CCN(C)[C@@H](C)C1 [YJZ8107, N1-(3-acrylamido-4-((S)-3,4-dimethylpiperazin-1-yl)phenyl)-N1-((1r,4S)-4-((5-cyanopyridin-2-yl)amino)cyclohexyl)-N2-(2,3-difluorobenzyl)oxalamide]
15 to 50	50 to 500	50 to 500	–	C=CC(=O)Nc1cc(N(C(=O)NCc2ccccc2)[C@H]2CC[C@H](Nc3ccc(C#N)cn3)CC2)ccc1N1CCN(C2COC2)CC1 [YJZ6028, N-(5-(3-benzyl-1-((1r,4r)-4-((5-cyanopyridin-2-yl)amino)cyclohexyl)ureido)-2-(4-(oxetan-3-yl)piperazin-1-yl)phenyl)acrylamide]
15 to 50	15 to 50	< 15	–	C=CC(=O)Nc1cc(N(C(=O)NCc2ccccc2)[C@H]2CC[C@H](Nc3ccc(C#N)cn3)CC2)ccc1N1CCN[C@@H](C)C1 [YJZ8027]
50 to 500	–	–	–	C=CC(=O)Nc1cc(N([C@H]2CC[C@H](Nc3ccc(C#N)cn3)CC2)S(=O)(=O)Cc2ccccc2)ccc1N1CCC(N(C)C)CC1 [YJZ6136, N-(5-((N-((1r,4r)-4-((5-cyanopyridin-2-yl)amino)cyclohexyl)-1-phenylmethyl)sulfonamido)-2-(4-(dimethylamino)piperidin-1-yl)phenyl)acrylamide]
15 to 50	–	–	–	C=CC(=O)Nc1cc(N(C(=O)C(=O)NCc2cc(F)cc(F)c2)[C@H]2CC[C@H](Nc3ccc(C#N)cn3)CC2)ccc1N1CCN(C)[C@@H](C)C1 [YJZ8102, N1-(3-acrylamido-4-((S)-3,4-dimethylpiperazin-1-yl)phenyl)-N1-((1r,4S)-4-((5-cyanopyridin-2-yl)amino)cyclohexyl)-N2-(3,5-difluorobenzyl)oxalamide]
50 to 500	–	–	–	C=CC(=O)Nc1cc(Br)cc(N(C(=O)NCc2ccccc2)[C@H]2CC[C@H](Nc3ccc(C#N)cn3)CC2)c1 [YJZ8053, N-(3-(3-benzyl-1-((1r,4r)-4-((5-cyanopyridin-2-yl)amino)cyclohexyl)ureido)-5-bromophenyl)acrylamide]
< 15	–	–	–	C=CC(=O)Nc1cc(N(C(=O)C(=O)NCc2ccc(F)c(F)c2)[C@H]2CC[C@H](Nc3ccc(C#N)cn3)CC2)ccc1N1CCN(C)[C@@H](C)C1 [YJZ8101, N1-(3-acrylamido-4-((S)-3,4-dimethylpiperazin-1-yl)phenyl)-N1-((1r,4S)-4-((5-cyanopyridin-2-yl)amino)cyclohexyl)-N2-(3,4-difluorobenzyl)oxalamide]
50 to 500	–	–	–	CN(C)C/C=C/C(=O)Nc1cc(N(C(=O)NCc2ccccc2)[C@H]2CC[C@H](Nc3ccc(C#N)cn3)CC2)ccc1-c1ccc(=O)n(C)c1 [YJZ5078]
